This assay addresses T1, human cannabinoid CB2 receptor (Homo sapiens, UniProt P34972).
T1 construct: expressed in transfected cells; host or cells: Saccharomyces cerevisiae strain MMY23 (expresses a chimeric Gpa1/human Galpha-i3 G-protein alpha subunit)
Description: Cannabinoid CB2 receptor agonist activity, yeast reporter assay. Format: cell-based. To be noted: for Emax: read-out: efficacy (Emax) at the cloned human cannabinoid CB2 receptor. The text has this:
Yeast (Saccharomyces cerevisiae) cells expressing the human cannabinoid CB2 receptor were generated by integration of an expression cassette into the ura3 chromosomal locus of yeast strain MMY23. This cassette consisted of DNA sequence encoding the human CB2 receptor flanked by the yeast GPD promoter to the 5′ end of CB2 and a yeast transcriptional terminator sequence to the 3′ end of CB2. MMY23 expresses a yeast/mammalian chimeric G-protein alpha subunit in which the C-terminal 5 amino acids of Gpa1 are replaced with the C-terminal 5 amino acids of human Gαi3 (as described in Brown et al. (2000), Yeast 16:11-22).
Agonists were prepared as 10 mM stocks in DMSO. […] Agonist solutions in DMSO (1% final assay volume) were transferred into black, clear bottom, microtitre plates from NUNC (96- or 384-well). […] Fluorescence was plotted against compound concentration and iteratively curve fitted using a four parameter fit to generate a concentration effect value.
A general note: A reporter such as luciferase makes a cellular process visible.

Structures are written as SMILES.

T1 sequence (P34972 whole entry): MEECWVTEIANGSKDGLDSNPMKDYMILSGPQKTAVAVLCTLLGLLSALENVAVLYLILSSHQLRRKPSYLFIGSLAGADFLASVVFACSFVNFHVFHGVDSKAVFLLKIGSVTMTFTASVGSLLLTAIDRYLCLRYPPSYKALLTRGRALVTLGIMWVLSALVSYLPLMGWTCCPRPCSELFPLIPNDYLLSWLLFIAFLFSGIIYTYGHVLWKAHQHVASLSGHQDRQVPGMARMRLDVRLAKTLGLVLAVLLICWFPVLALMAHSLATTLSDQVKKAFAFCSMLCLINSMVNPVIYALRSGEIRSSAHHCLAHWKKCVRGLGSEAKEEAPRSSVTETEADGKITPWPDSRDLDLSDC

One may read the EC50 as the concentration at which the effect is half-maximal. A low value points to an effect from little substance. As a reminder, the Emax is the maximal effect, on the per cent scale that the assay sets. Consider `O=C(NCc1ccnc(F)c1)c1cnc(Nc2cccc(Cl)c2)nc1C(F)(F)F` [Example 29, 2-(3-Chloro-phenylamino)-4-trifluoromethyl-pyrimidine-5-carboxylic acid (2-fluoro-pyridin-4-ylmethyl)-amide], for which the half-maximal effective concentration (EC50) is 20 to 1000 nM and the Emax is greater than 50%.

As for `O=C(NCc1ccccc1)c1cnc(Nc2ccccc2Cl)nc1C(F)(F)F` [Example 43, 2-(2-Chloro-phenylamino)-4-trifluoromethyl-pyrimidine-5-carboxylic acid N-benzylamide], the 50% effective concentration (EC50) was greater than 1000 nM and the maximum response (Emax) is less than 50%.

For `O=C(NCc1ccccc1)c1cnc(Nc2ccc(Cl)cc2)nc1C(F)(F)F` [Example 44, 2-(4-Chloro-phenylamino)4-trifluoromethyl-pyrimidine-5-carboxylic acid N-benzylamide], the concentration giving a half-maximal response (EC50) is greater than 1000 nM and the Emax was less than 50%.

Take `CN(Cc1ccccc1)C(=O)c1cnc(Nc2ccc(Cl)cc2)nc1C(F)(F)F` [Example 45, 2-(4-Chloro-phenylamino)-4-trifluoromethyl-pyrimidine-5-carboxylic acid N-benzyl-N-methyl-amide]: the EC50 was greater than 1000 nM and the Emax was less than 50%.

As for `COc1ccc(Nc2ncc(C(=O)NCc3ccccc3)c(C(F)(F)F)n2)cc1` [Example 46, 2-(4-Methoxy-phenylamino)-4-trifluoromethyl-pyrimidine-5-carboxylic acid N-benzylamide], the 50% effective concentration (EC50) is greater than 1000 nM and the Emax is less than 50%.

`COc1ccc(Nc2ncc(C(=O)N(C)Cc3ccccc3)c(C(F)(F)F)n2)cc1` [Example 47, 2-(4-Methoxy-phenylamino)-4-trifluoromethyl-pyrimidine-5-carboxylic acid N-benzyl-N-methyl-amide]: the half-maximal effective concentration (EC50) was greater than 1000 nM and the Emax is less than 50%.

In the case of `CN(Cc1ccccc1)C(=O)c1cnc(Nc2cccc(C#N)c2)nc1C(F)(F)F` [Example 48, 2-(3-Cyano-phenylamino)-4-trifluoromethyl-pyrimidine-5-carboxylic acid N-benzyl-N-methyl-amide], the EC50 was greater than 1000 nM and the maximal response (Emax) was less than 50%.

`CN(Cc1ccccc1)C(=O)c1cnc(Nc2ccc(C#N)cc2)nc1C(F)(F)F` [Example 49, 2-(4-Cyano-phenylamino)-4-trifluoromethyl-pyrimidine-5-carboxylic acid N-benzyl-N-methyl-amide]: the EC50 is greater than 1000 nM and the maximum response (Emax) was less than 50%.

Take `COc1cccc(CNC(=O)c2cnc(Nc3cccc(Cl)c3)nc2C(F)(F)F)c1` [Example 50, 2-(3-Chloro-phenylamino)-4-trifluoromethyl-pyrimidine-5-carboxylic acid N-(3-methoxybenzyl)amide]: the concentration giving a half-maximal response (EC50) is greater than 1000 nM and the maximal response (Emax) was less than 50%.

Regarding `O=C(NCc1ccccc1Cl)c1cnc(Nc2cccc(Cl)c2)nc1C(F)(F)F` [Example 51, 2-(3-Chloro-phenylamino)-4-trifluoromethyl-pyrimidine-5-carboxylic acid N-(2-chlorobenzyl)amide], the EC50 was greater than 1000 nM and the Emax was less than 50%.

With `O=C(NCc1cccc(Cl)c1)c1cnc(Nc2cccc(Cl)c2)nc1C(F)(F)F` [Example 52, 2-(3-Chloro-phenylamino)-4-trifluoromethyl-pyrimidine-5-carboxylic acid N-(3-chlorobenzyl)amide], the EC50 was greater than 1000 nM and the maximum response (Emax) was less than 50%.

As to `CCN(Cc1ccccc1)C(=O)c1cnc(Nc2ccccc2Cl)nc1C(F)(F)F` [Example 53, 2-(2-Chloro-phenylamino)-4-trifluoromethyl-pyrimidine-5-carboxylic acid N-benzyl-N-ethyl-amide], the concentration giving a half-maximal response (EC50) was greater than 1000 nM and the Emax was less than 50%.

With `CN(Cc1ccccc1)C(=O)c1cnc(Nc2ccc(Cl)cc2Cl)nc1C(F)(F)F` [Example 54, 2-(2,4-Dichloro-phenylamino)-4-trifluoroniethyl-pyrimidine-5-carboxylic acid N-benzyl-N methyl-amide], the 50% effective concentration (EC50) was greater than 1000 nM and the maximum response (Emax) was less than 50%.

`CN(Cc1ccccc1)C(=O)c1cnc(Nc2ccc(Cl)c(Cl)c2)nc1C(F)(F)F` [Example 55, 2-(3,4-Dichloro-phenylamino)-4-trifluoromethyl-pyrimidine-5-carboxylic acid N-benzyl-N-methyl-amide]: the EC50 is greater than 1000 nM and the Emax was less than 50%.

On to `O=C(NCc1ccccc1)c1cnc(Nc2cc(Cl)ccc2Cl)nc1C(F)(F)F` [Example 56, 2-(2,5-Dichloro-phenylamino)-4-trifluoromethyl-pyrimidine-5-carboxylic acid N-benzylamide], for which the concentration giving a half-maximal response (EC50) was greater than 1000 nM and the maximal response (Emax) is less than 50%.

In the case of `CN(Cc1ccccc1)C(=O)c1cnc(Nc2cc(Cl)cc(Cl)c2)nc1C(F)(F)F` [Example 57, 2-(3,5-Dichloro-phenylamino)-4-trifluoromethyl-pyrimidine-5-carboxylic acid N-benzyl-N-methyl-amide], the EC50 was greater than 1000 nM and the Emax is less than 50%.

Consider `CN(Cc1ccccc1)C(=O)c1cnc(Nc2cc(Cl)ccc2Cl)nc1C(F)(F)F` [Example 58, 2-(2,5-Dichloro-phenylamino)-4-trifluoromethyl-pyrimidine-5-carboxylic acid N-benzyl-N-methyl-amide], for which the EC50 was greater than 1000 nM and the maximum response (Emax) was less than 50%.

For the compound `O=C(NCc1ccccn1)c1cnc(Nc2cccc(Cl)c2)nc1C(F)(F)F` [Example 59, 2-(3-Chloro-phenylamino)-4-trifluoromethyl-pyrimidine-5-carboxylic acid N-(pyridin-2-ylmethyl)-amide], the EC50 is greater than 1000 nM and the maximum response (Emax) was less than 50%.

Regarding `O=C(NCc1cccnc1)c1cnc(Nc2cccc(Cl)c2)nc1C(F)(F)F` [Example 60, 2-(3-Chloro-phenylamino)-4-trifluoromethyl-pyrimidine-5-carboxylic acid N-(pyridin-3-ylmetbyl)-amide], the EC50 is greater than 1000 nM and the maximal effect (Emax) was less than 50%.

As to `O=C(NCc1cc(F)cc(F)c1)c1cnc(Nc2cccc(Cl)c2)nc1C(F)(F)F` [Example 61, 2-(3-Chloro-phenylamino)-4-trifluoromethyl-pyrimidine-5-carboxylic acid N-(3,5-difluoro-benzyl)amide], the EC50 was greater than 1000 nM and the Emax was less than 50%.

Take `O=C(NCc1ccc(OC(F)(F)F)cc1)c1cnc(Nc2cccc(Cl)c2)nc1C(F)(F)F` [Example 62, 2-(3-Chloro-phenylamino)-4-trifluoromethyl-pyrimidine-5-carboxylic acid N-(4-trifluoromethoxybenzyl)amide]: the 50% effective concentration (EC50) is greater than 1000 nM and the Emax is less than 50%.

For the compound `O=C(NCc1ccc(Br)cc1)c1cnc(Nc2cccc(Cl)c2)nc1C(F)(F)F` [Example 63, 2-(3-Chloro-phenylamino)-4-trifluoromethyl-pyrimidine-5-carboxylic acid N-(4-bromo-benzyl)amide], the EC50 was greater than 1000 nM and the maximal response (Emax) was less than 50%.

Turning to `N#Cc1ccc(CNC(=O)c2cnc(Nc3cccc(Br)c3)nc2C(F)(F)F)cc1` [Example 64, 2-(3-Bromo-phenylamino)-4-trifluoromethyl-pyrimidine-5-carboxylic acid N-(4-cyano-benzyl)amide], the EC50 is greater than 1000 nM and the Emax was less than 50%.

With `N#Cc1ccc(CNC(=O)c2cnc(Nc3cccc(Cl)c3Cl)nc2C(F)(F)F)cc1` [Example 65, 2-(2,3-Dichloro-phenylamino)-4-trifluoromethyl-pyrimidine-5-carboxylic acid N-(4-cyano-benzyl)amide], the concentration giving a half-maximal response (EC50) is greater than 1000 nM and the Emax was less than 50%.

On to `N#Cc1ccc(CNC(=O)c2cnc(Nc3ccc(Cl)cc3Cl)nc2C(F)(F)F)cc1` [Example 66, 2-(2,4-Dichloro-phenylamino)-4-trifluoromethyl-pyrimidine-5-carboxylic acid N-(4-cyano-benzyl)amide], for which the EC50 is greater than 1000 nM and the maximal effect (Emax) is less than 50%.

In the case of `N#Cc1ccc(CNC(=O)c2cnc(Nc3cc(Cl)ccc3Cl)nc2C(F)(F)F)cc1` [Example 67, 2-(2,5-Dichloro-phenylamino)-4-trifluoromethyl-pyrimidine-5-carboxylic acid N-(4-cyano-benzyl)amide], the EC50 is greater than 1000 nM and the Emax was less than 50%.

`N#Cc1ccc(CNC(=O)c2cnc(Nc3ccc(Cl)c(Cl)c3)nc2C(F)(F)F)cc1` [Example 68, 2-(3,4-Dichloro-phenylamino)-4-trifluoromethyl-pyrimidine-5-carboxylic acid N-(4-cyano-benzyl)amide]: the EC50 is greater than 1000 nM and the Emax was less than 50%.

Consider `O=C(NCc1ccncc1)c1cnc(Nc2c(Cl)cccc2Cl)nc1C(F)(F)F` [Example 69, 2-(2,6-Dichloro-phenylamino)-4-trifluorometbyl-pyrimidine-5-carboxylic acid N-(pyridin-4-ylmethyl)-amide], for which the EC50 is greater than 1000 nM and the maximal effect (Emax) was less than 50%.

`O=C(NCc1ccc(F)cc1)c1cnc(Nc2c(Cl)cccc2Cl)nc1C(F)(F)F` [Example 70, 2-(2,6-Dichloro-phenylamino)-4-trifluoromethyl-pyrimidine-5-carboxylic acid N-(4-fluoro-benzyl)amide]: the EC50 was greater than 1000 nM and the Emax is less than 50%.

Source of the values: patent publication US20060247261A1 (priority 2002, published 2006).
